Laboratory results reported in article PMC10333392 (Molecular Imaging and Biology, 2023).
“Also recorded” adds a separate entry of the source.

Columns and labels:
[1] = biological target: T1, NMDA PCP site (Rattus norvegicus, UniProt P35439); test: [^3H]TCP radioligand competition binding on rat brain membranes; settings: for IC50: inhibition of [^3H]TCP binding
T1 construct: from tissue; host or cells: Wistar rat hippocampus, frontal cortex or forebrain synaptic membranes

[2] = biological target: T2, NMDA receptor glycine site (Rattus norvegicus, UniProt P35439); test: [^3H]glycine competition binding, rat forebrain membranes; settings: radioligand [^3H]-glycine
T2 construct: from tissue; host or cells: Wistar rat forebrain synaptic membranes

[3] = biological target: AMPA receptor; test: [^3H]AMPA competition binding, rat forebrain membranes; settings: radioligand [^3H]-AMPA
[4] = biological target: Kaïnate receptor; assay type: binding, rat
[5] = biological target: T3, Dopaminergic receptor (D1) (Rattus norvegicus, UniProt P18901); test: [^3H]SCH23390 competition binding, rat striatum membranes; settings: radioligand [^3H]-SCH23390
T3 construct: from tissue; host or cells: Wistar rat brain synaptic membranes (striatum according to the earlier reading)

[6] = biological target: T4, Dopaminergic receptor (D2) (Rattus norvegicus, UniProt P61169); test: [^3H]raclopride competition binding, rat striatum membranes; settings: radioligand [^3H]-raclopride
T4 construct: from tissue; host or cells: Wistar rat brain synaptic membranes (striatum according to the earlier reading)

[7] = read-out: IC50 ± SEM ([^19F]FNM inhibition)

T4 sequence (P61169 whole entry): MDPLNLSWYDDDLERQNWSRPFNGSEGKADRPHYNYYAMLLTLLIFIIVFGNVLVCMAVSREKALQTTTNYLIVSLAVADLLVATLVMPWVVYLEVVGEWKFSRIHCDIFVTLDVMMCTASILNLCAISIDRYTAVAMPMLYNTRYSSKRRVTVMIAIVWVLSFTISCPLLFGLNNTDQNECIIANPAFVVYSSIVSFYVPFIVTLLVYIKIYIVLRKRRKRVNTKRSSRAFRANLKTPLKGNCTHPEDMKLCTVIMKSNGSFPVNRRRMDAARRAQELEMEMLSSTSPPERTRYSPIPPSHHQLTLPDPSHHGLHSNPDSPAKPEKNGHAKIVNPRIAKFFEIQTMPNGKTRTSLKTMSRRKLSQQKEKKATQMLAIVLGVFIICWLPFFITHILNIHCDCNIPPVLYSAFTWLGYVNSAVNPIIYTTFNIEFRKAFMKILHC
T3 sequence (P18901 whole entry): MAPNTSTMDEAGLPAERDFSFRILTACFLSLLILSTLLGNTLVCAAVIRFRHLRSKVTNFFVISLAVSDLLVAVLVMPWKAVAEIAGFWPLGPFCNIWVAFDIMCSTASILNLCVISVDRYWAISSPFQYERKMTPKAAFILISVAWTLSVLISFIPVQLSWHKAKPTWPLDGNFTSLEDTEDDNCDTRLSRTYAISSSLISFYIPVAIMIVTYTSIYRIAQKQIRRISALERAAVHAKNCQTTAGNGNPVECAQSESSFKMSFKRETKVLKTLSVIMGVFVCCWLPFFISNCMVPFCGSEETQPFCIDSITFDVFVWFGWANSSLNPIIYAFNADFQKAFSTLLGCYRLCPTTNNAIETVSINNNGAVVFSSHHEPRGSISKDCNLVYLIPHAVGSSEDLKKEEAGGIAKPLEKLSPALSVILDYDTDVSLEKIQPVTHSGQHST

Fluoroethylnormemantine [[^19F]FNM]
selectivity for the NMDA receptor ion-channel compared to the other targets examined ([1]; in the forebrain): at least sevenfold | IC50 ([1]; rat forebrain): 13 ± 8.9 µM | IC50 ([1]; rat frontal cortex): 80.8 ± 15.1 µM | IC50 ([1]; rat hippocampus): 52.9 ± 9.7 µM | IC50 ± SEM ([^19F]FNM inhibition) [2]: did not displace; also recorded: No inhibition | IC50 ± SEM ([^19F]FNM inhibition) [3]: did not displace; also recorded: No inhibition | IC50 ± SEM ([^19F]FNM inhibition) [4]: did not displace; also recorded: No inhibition | IC50 ± SEM ([^19F]FNM inhibition) [5]: did not displace | IC50 [5, 7]: > 1000 µM | IC50 ± SEM ([^19F]FNM inhibition) [6]: did not displace | IC50 [6, 7]: > 1000 µM
